In patent publication US20240366655A1, “COMBINATION DRUG THERAPIES” (CYBIN IRL LIMITED, priority 2021, published 2024):
Read-outs that look alike come from different tables or passages of the source.

How the values were obtained:
[1] = biological target: T1, serotonin 5-HT2A receptor (Mus musculus, UniProt P35363); conditions: 1 mg/kg dose, intraperitoneal, rats and mice; cited from earlier work
T1 construct: endogenous in cells; host or cells: living mice (in vivo behavioural assay); receptor endogenous to the animal
T1 sequence (P35363 whole entry): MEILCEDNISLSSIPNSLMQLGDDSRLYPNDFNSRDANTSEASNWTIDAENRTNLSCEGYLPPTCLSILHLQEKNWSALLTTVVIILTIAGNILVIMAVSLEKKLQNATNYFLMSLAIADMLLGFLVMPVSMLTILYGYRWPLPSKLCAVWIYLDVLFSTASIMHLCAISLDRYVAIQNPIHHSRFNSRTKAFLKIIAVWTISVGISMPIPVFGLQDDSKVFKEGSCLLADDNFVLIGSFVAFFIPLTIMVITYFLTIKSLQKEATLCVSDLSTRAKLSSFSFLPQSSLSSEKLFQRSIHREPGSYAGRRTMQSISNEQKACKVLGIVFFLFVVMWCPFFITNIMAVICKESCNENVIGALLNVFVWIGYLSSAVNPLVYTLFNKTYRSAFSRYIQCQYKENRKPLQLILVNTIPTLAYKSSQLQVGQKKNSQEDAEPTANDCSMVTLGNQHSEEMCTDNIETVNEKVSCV

[2] = Plasma pharmacokinetics of co-administered DMT and DMT-d10 by intravenous (bolus), oral gavage and inhalation administration to male rats; conditions: for time of peak plasma concentration postdose: after oral administration; for mean residence time (MRT) after inhalation compared to IV administration: inhalation vs IV; for F: calculated from dose normalized AUC0-1 mean values vs Group 4 IV; for bioavailability / Tmax / half-life / AUC(0-t) / AUC0-inf / Cmax / MRT last / AUC0-1/dose / t1/2: plasma
[3] = Experiment 6: blood neurotrophic and endocrine biomarkers after DMT+N2O in healthy human participants; conditions: DMT 0.1, 0.2, 0.4 mg/kg
Description: General experimental design. The proposed studies aim to define proof-of-concept synergistic interactions of inhalational DMT fumarate with N2O, or IV DMT fumarate administered as a bolus over 30 seconds. Healthy adult participants will be exposed to either inhalational DMT in 20-25% N2O in oxygen as the carrier gas, or inhalational DMT in oxygen alone as the carrier gas in a blinded manner, or IV DMT while inhaling 20-25% N2O in oxygen, or oxygen.
Pre-study: Baseline measurements of heart rate, body temperature and blood pressure will be made. An IV cannula will be inserted into a forearm vein for blood sampling and to allow administration of DMT as a bolus in the IV condition. Participants will be allowed to relax for 30 min before the drug session. Study session: Participants will receive administration of either 20-25% N2O in oxygen, or oxygen alone, for 10 minutes prior to the administration of a high, medium or low dose of inhalational or IV DMT (0.4, 0.2, 0.1 mg/kg) over the course of 30 sec-1 minute. […]
Baseline blood samples will be drawn 30 minutes before N2O or oxygen administration, and after 8 mins of N2O or oxygen administration for endocrine markers of HPA axis activation: corticotropin, β-endorphin, prolactin, GH and cortisol levels. Further blood samples will be drawn, and vital signs measured 2, 15, 60 and 120 minutes after DMT administration. […]

[4] = cited from earlier work
[5] = rats, following intraperitoneal injection; cited from earlier work
[6] = Brain pharmacokinetics and brain to plasma ratio after IV co-administration of DMT and DMT-d10 to male rats (Group 4); format: in vivo, Sprague Dawley rats; conditions: for Cmax / Tmax / half-life / Kp: Sprague Dawley, rat; for Cmax / Tmax / AUC0-inf / AUC(0-t) / half-life: brain; for Cmax / Tmax / AUC0-inf / AUC(0-t): Group 4 IV bolus 1 mg/kg, male rats; for Distribution into brain: after IV co-administration; for half-life / Kp: male, 1 mg/kg; for half-life: Group 4 IV, calculated 0.25 to 1 hr; for Kp: brain / plasma, intravenous, read-out: B/P (AUC0-1), brain to plasma ratio
Description: The pharmacokinetics and bioavailability of N,N-dimethyltryptamine (DMT) and 2-(1H-indol-3-yl)-N,N-bis(methyl-d3)ethan-1-amine-1,1,2,2-d4 (DMT-d10) were investigated in rats following intravenous (bolus), oral gavage (OG), and inhalation after co-dose administration.
Sampling collection. PK samples (0.3 mL) were collected from the jugular vein by venepuncture into tubes containing K2EDTA anticoagulant at the following sampling times: Group 1 (IV) and Group 2 (oral) serial plasma collection at 0.083, 0.25, 0.5, 1, 3, 8 and 24 hr postdose; Group 4 (IV) composite plasma and brain collection at 0.083, 0.25, 0.5 and […]; Group 6 (inhalation) serial plasma collection at 0.333, 0.533, 0.833, 1.333, 3.333, 8.333 and 24.333 after start of inhalation.
Brain samples: After extraction of whole brain from the cranium, brains were rinsed, patted dry, weighed, placed into tubes and frozen on dry ice. Thereafter, they were stored at −70 (10°) C pending analysis.
Bioanalysis. Plasma and brain homogenates were analyzed for DMT and DMT-d10 using an established LC-MS/MS assay.) Pharmacokinetic parameters were determined from the DMT and DMT-d10 plasma and brain concentration-time profiles using commercially available software (Phoenix® WinNonlin®).

[7] = inhalation, DMT 15.3 mg/kg, DMT-d10 14.7 mg/kg
[8] = male, Sprague Dawley, rat, inhaled
[9] = male, Sprague Dawley, rat, inhaled or intranasal
[10] = male, Sprague Dawley, rat, inhaled or intranasal, AUC0-1, plasma, Group 6 inhalation, DMT 15.3 mg/kg, DMT-d10 14.7 mg/kg
[11] = male, Sprague Dawley, rat, inhaled or intranasal, AUC0-1, plasma, inhalation, DMT 15.3 mg/kg, DMT-d10 14.7 mg/kg (summary table)
[12] = male, Sprague Dawley, rat, inhaled or intranasal, AUC0-t, Group 6 inhalation, DMT 15.3 mg/kg, DMT-d10 14.7 mg/kg
[13] = male, Sprague Dawley, rat, iv, 1 mg/kg
[14] = male, Sprague Dawley, rat, iv, 1 mg/kg, AUC0-1, plasma, 1 mg/kg (summary table)
[15] = male, Sprague Dawley, rat, iv, 1 mg/kg, AUC0-1, plasma, Group 4 IV bolus, 1 mg/kg, male rats
[16] = male, Sprague Dawley, rat, iv, 1 mg/kg, AUC0-t, Group 4 IV bolus, 1 mg/kg, male rats
[17] = male, Sprague Dawley, rat, po, 10 mg/kg
[18] = male, Sprague Dawley, rat, po, 10 mg/kg, AUC0-1, plasma, 10 mg/kg (summary table)
[19] = male, Sprague Dawley, rat, po, 10 mg/kg, AUC0-1, plasma, Group 2 oral gavage (OG), 10 mg/kg, male rats
[20] = male, Sprague Dawley, rat, po, 10 mg/kg, AUC0-t, Group 2 oral gavage (OG), 10 mg/kg, male rats
[21] = inhalation, calculated 0.333 to 3.333 hr (summary table)
[22] = intravenous 1 mg/kg, calculated 0.083 to 1.0 hr (summary table)
[23] = human, IV bolus of DMT (as fumarate salt), 0.05-0.4 mg/kg

In the case of `CN(C)CCc1c[nH]c2ccccc12` [DMT, N,N-dimethyltryptamine], the “hallucinogenic effect as measured by head-twitch responses (HTRs)” value [1] is given as “sub-hallucinogenic”, the “time of highest plasma concentration (first time point taken)” value (shortened to “time of highest plasma concentration”) ([2]; after IV bolus) is given as 0.083 h and the “time of highest plasma concentration” value ([2]; after inhalation) is given as 0.333 h. For the same molecule, the “time of peak plasma concentration postdose” value [2] was 1 h, the “mean residence time (MRT) after inhalation compared to IV administration” value [2] was “approximately 2 ×” and the F [2, 7] was 15.3%. For the same molecule, the bioavailability [2, 8] was 15.3%, the Tmax [2, 9] was 20 min and the half-life [2, 9] was 19.7 min. For the same molecule, the AUC(0-t) [2, 10] was 265 ng·h/mL, the AUC(0-t) [2, 11] was 265 ng·h/mL and the AUC(0-t) [2, 12] was 300 ng·h/mL. For the same molecule, the AUC0-inf [2, 13] was 115 ng·h/mL, the Cmax [2, 13] was 314 ng/mL and the MRT last [2, 13] was 13.6 min. The half-life [2, 13] was 10.1 min, the AUC(0-t) [2, 14] was 113 ng·h/mL and the AUC(0-t) [2, 15] was 113 ng·h/mL. The AUC(0-t) [2, 16] was 113 ng·h/mL, the Cmax [2, 17] was 28 ng/mL and the MRT last [2, 17] was 172 min. For the same molecule, the Tmax [2, 17] was 60 min, the bioavailability [2, 17] was 1.2% and the AUC(0-t) [2, 18] was 13.7 ng·h/mL. For the same molecule, the AUC(0-t) [2, 19] was 13.7 ng·h/mL, the AUC(0-t) [2, 20] was 65 ng·h/mL and the F ([2]; oral gavage 10 mg/kg) was 1.2%. It also gave an AUC0-1/dose [2, 7] of 17.3, a t1/2 [2, 21] of 19.7 min and a t1/2 [2, 22] of 10.1 min. The AUC0-1/dose ([2]; intravenous, 1 mg/kg) was 113, the AUC0-1/dose ([2]; oral, 10 mg/kg) was 1.37 and the “levels of VEGF and BDNF in blood” value [3] was “dose-dependently increased levels”. The half-life ([4]; administered intravenously) was “around 15 minutes”, the “time to peak plasma concentrations” value ([4]; administered intravenously) was “approximately 2 minutes” and the subjective effects ([4]; human, 0.1 mg/kg IV) was “not hallucinogenic”. For the same molecule, the subjective effects ([4]; human, 0.2 and 0.4 mg/kg IV) was “nearly instantaneous onset of visual hallucinatory phenomena, bodily dissociation, and extreme shifts in mood”, the “peak of psycho-biological effects after administration” value [4, 23] was 120 seconds and the “time by which psycho-biological effects resolve” value [4, 23] was at most 30 minutes. The duration of effect ([4]; vaporized DMT) was “less than 30 min”, the half-life [5] was 5 to 15 min and the “time to be metabolized and cleared from brain, liver, and plasma” value [5] was at most 1 h. For the same molecule, the Cmax [6] was 3430 ng/g, the Tmax [6] was 5 min and the Distribution into brain [6] was “high”. The AUC0-inf [6] was 1070 ng·h/g, the AUC(0-t) [6] was 1060 ng·h/g and the half-life [6] was 9.3 min. The Kp [6] was 9.

For `[2H]C([2H])([2H])N(C([2H])([2H])[2H])C([2H])([2H])C([2H])([2H])c1c[nH]c2ccccc12` [DMT-d10, 2-(1H-indol-3-yl)-N,N-bis(methyl-d3)ethan-1-amine-1,1,2,2-d4], the “increase of inhalation bioavailability by deuteration” value ([2]; DMT-d10 vs. DMT) was “approximately 60%”, the “time of highest plasma concentration” value ([2]; after IV bolus) was 0.083 h and the “time of highest plasma concentration” value ([2]; after inhalation) was 0.333 h. The “time of peak plasma concentration postdose” value [2] was 1 h, the “mean residence time (MRT) after inhalation compared to IV administration” value [2] was “approximately 2 ×” and the F [2, 7] was 24.3%. It also gave a bioavailability [2, 8] of 24.3%, a Tmax [2, 9] of 20 min and a half-life [2, 9] of 23.7 min. It also gave an AUC(0-t) [2, 10] of 267 ng·h/mL, an AUC(0-t) [2, 11] of 267 ng·h/mL and an AUC(0-t) [2, 12] of 361 ng·h/mL. The AUC0-inf [2, 13] was 92.6 ng·h/mL, the Cmax [2, 13] was 148 ng/mL and the MRT last [2, 13] was 20.9 min. For the same molecule, the half-life [2, 13] was 26.5 min, the AUC(0-t) [2, 14] was 74.6 ng·h/mL and the AUC(0-t) [2, 15] was 74.6 ng·h/mL. For the same molecule, the AUC(0-t) [2, 16] was 74.6 ng·h/mL, the Cmax [2, 17] was 20.8 ng/mL and the MRT last [2, 17] was 221 min. It also gave a Tmax [2, 17] of 60 min, a bioavailability [2, 17] of 1.2% and an AUC(0-t) [2, 18] of 8.78 ng·h/mL. For the same molecule, the AUC(0-t) [2, 19] was 8.78 ng·h/mL, the AUC(0-t) [2, 20] was 77.2 ng·h/mL and the F ([2]; oral gavage 10 mg/kg) was 1.2%. For the same molecule, the Cmax ([2]; Group 4 IV bolus, 1 mg/kg, male rats) was 148 ng/mL, the AUC0-1/dose [2, 7] was 18.2 and the t1/2 [2, 21] was 23.7 min. The t1/2 [2, 22] was 26.5 min, the AUC0-1/dose ([2]; intravenous, 1 mg/kg) was 74.6 and the AUC0-1/dose ([2]; oral, 10 mg/kg) was 0.878. The “improvement of brain to plasma (B/P) ratio by deuteration” value ([6]; DMT-d10 vs. DMT, IV) was “approximately 50%”, the Cmax [6] was 1490 ng/g and the Tmax [6] was 5 min. The Distribution into brain [6] was “high”, the AUC0-inf [6] was 1290 ng·h/g and the AUC(0-t) [6] was 931 ng·h/g. The half-life [6] was 33.9 min and the Kp [6] was 14.
